# Legend:
# Format in all cases: physicochemical
# [1] = Hygroscopicity of the solid forms (DVS sorption/desorption isotherms); settings: in words
# Method: (§1) DVS isotherms were collected on a DVS-1, DVS-HT and DVS Intrinsic (SMS Surface Measurements Systems) moisture balance system. The sorption/desorption isotherms were measured stepwise in a range of 0% RH to 90% RH at 25° C. A weight change of <0.002 mg/min was chosen as criterion to switch to the next level of relative humidity (with a maximum equilibration time of 24 hours, if the weight criterion was not met). The data were corrected for the initial moisture content of the samples; that is, the weight after drying the sample at 0% RH was taken as the reference point.
# [2] = Relative stability of the solid forms (statements in words); settings: for solid form stability: in words
# [3] = Competing slurry experiment between Free acid Forms A, B and C; settings: isopropyl acetate, 20 and 60° C., seeded with Free acid Form B and Form C, 14 days, wet stage XRPD
# Method: Description of a typical competing slurry experiment:
# 200 and 300 mg of form A of (S)-2-methoxy-3-{4-[2-(5-methyl-2-phenyl-oxazol-4-yl)-ethoxy]-benzo[b]thiophen-7-yl}-propionic acid were each suspended in ca. 1 mL of isopropyl acetate at 20 and 60° C., respectively. After 24 h the two suspensions were seeded with approximately 10 mg of Free acid Form B and Free acid Form C. After 14 days the crystals were harvested by filtration and analyzed in wet stage by XRPD.
# [4] = Thermal solid-form transformation (DSC, temperature controlled XRPD); settings: for temperature of thermal transformation into Sodium salt Form A: incubation at high temperature; for glass transition temperature, above which recrystallization is likely to occur: midpoint
# Method: DSC curves were recorded using a Mettler-Toledo™ differential scanning calorimeter DSC820, DSC821 or DSC1 with a FRS05 sensor. System suitability tests were performed with indium as reference substance and calibrations were carried out using indium, benzoic acid, biphenyl and zinc as reference substances.
# (§2) For the measurements, approximately 2-6 mg of sample were placed in aluminum pans, accurately weighed and hermetically closed with perforation lids. Prior to measurement, the lids were automatically pierced resulting in approx. 1.5 mm pin holes. The samples were then heated under a flow of nitrogen of about 100 mL/min using heating rates of usually 10 K/min.
# (§3) X-ray powder diffraction patterns were recorded at ambient conditions in transmission geometry with a STOE STADI P diffractometer (Cu K ? ? radiation, primary monochromator, position sensitive detector, angular range 3° to 42° 2Theta, approximately 60 minutes total measurement time). Approximately 25 mg of sample were prepared and analyzed without further processing (e.g. grinding or sieving) of the substance.
# [5] = Humidity-induced solid-form transformation (humidity controlled XRPD, DVS); settings: at 25° C.
# Method: as §1, §3
# [6] = Decomposition temperature of the solid form (thermal analysis)
# Method: TGA analysis was performed on a Mettler-Toledo™ thermogravimetric analyzer (TGA850 or TGA851). System suitability tests were performed with Hydranal as reference substance and calibrations using aluminum and indium as reference substances.
# as §2, with “thermogravimetric analyses, approx. 5 to 10” for “measurements, approximately 2-6”, “50” for “100”, “using a” for “using”, “rate” for “rates”, “5” for “usually 10”
compound,measurement,setting,value
"CO[C@@H](Cc1ccc(OCCc2nc(-c3ccccc3)oc2C)c2ccsc12)C(=O)O [Free acid Form A, (S)-2-methoxy-3-{4-[2-(5-methyl-2-phenyl-oxazol-4-yl)-ethoxy]-benzo[b]thiophen-7-y1}-propionic acid]",hygroscopicity,[1],non-hygroscopic
same,thermodynamic stability among polymorphs,[2]; below ca. 60° C.,thermodynamically most stable polymorph
same,solid form obtained in competing slurry,[3],pure Free acid Form A is obtained
same,temperature of transformation into Free acid Form B,[4]; temperature controlled XRPD,> 85 °C
"CO[C@@H](Cc1ccc(OCCc2nc(-c3ccccc3)oc2C)c2ccsc12)C(=O)O [Free acid Form B, (S)-2-methoxy-3-{4-[2-(5-methyl-2-phenyl-oxazol-4-yl)-ethoxy]-benzo[b]thiophen-7-y1}-propionic acid]",temperature below which spontaneous transformation into Free acid Form A occurs,[4]; extrapolated peak DSC,< −5 °C
same,temperature of spontaneous solid-solid retransformation into Free acid Form A,[4]; observed at this temperature or below,≤ 45 °C
"CO[C@@H](Cc1ccc(OCCc2nc(-c3ccccc3)oc2C)c2ccsc12)C(=O)O [Free acid Form C, (S)-2-methoxy-3-{4-[2-(5-methyl-2-phenyl-oxazol-4-yl)-ethoxy]-benzo[b]thiophen-7-yl}-propionic acid]",thermodynamic stability among polymorphs,[2]; at ambient temperature,thermodynamically less stable than Free acid Form A and Free acid Form B
same,temperature of transformation into Free acid Form B,[4]; extrapolated peak DSC,ca. 150 °C
"CO[C@@H](Cc1ccc(OCCc2nc(-c3ccccc3)oc2C)c2ccsc12)C(=O)O [Free acid Form D, (S)-2-methoxy-3-{4-[2-(5-methyl-2-phenyl-oxazol-4-yl)-ethoxy]-benzo[b]thiophen-7-yl}-propionic acid]",solid form stability,[2],transforms into Free acid Form B upon storage at ambient conditions over time
"CO[C@@H](Cc1ccc(OCCc2nc(-c3ccccc3)oc2C)c2ccsc12)C(=O)O [Free acid Form E, (S)-2-methoxy-3-{4-[2-(5-methyl-2-phenyl-oxazol-4-yl)-ethoxy]-benzo[b]thiophen-7-yl}-propionic acid]",solid form stability,[2],transforms into Free acid Form B upon mild heating
"CO[C@@H](Cc1ccc(OCCc2nc(-c3ccccc3)oc2C)c2ccsc12)C(=O)[O-].[Na+] [Sodium salt Form A, sodium (S)-2-methoxy-3-{4-[2-(5-methyl-2-phenyl-oxazol-4-yl)-ethoxy]-benzo[b]thiophen-7-yl}-propanoate]",relative humidity above which transformation into hydrated form occurs,[5],> 80 % RH
same,temperature of transformation into Sodium salt Form B,[4],> 208 °C
"CO[C@@H](Cc1ccc(OCCc2nc(-c3ccccc3)oc2C)c2ccsc12)C(=O)[O-].[Na+] [Sodium salt Form B, sodium (S)-2-methoxy-3-{4-[2-(5-methyl-2-phenyl-oxazol-4-yl)-ethoxy]-benzo[b]thiophen-7-yl}-propanoate]",solid form stability,[2],metastable
same,temperature of thermal transformation into Sodium salt Form A,[4],> 120 °C
"CO[C@@H](Cc1ccc(OCCc2nc(-c3ccccc3)oc2C)c2ccsc12)C(=O)[O-].[Na+] [Sodium salt Form C, sodium (S)-2-methoxy-3-{4-[2-(5-methyl-2-phenyl-oxazol-4-yl)-ethoxy]-benzo[b]thiophen-7-yl}-propanoate]",relative humidity below which reversible transformation into a dehydrated solid form occurs,[5]; humidity controlled XRPD,< 15 %-RH
"CO[C@@H](Cc1ccc(OCCc2nc(-c3ccccc3)oc2C)c2ccsc12)C(=O)[O-].[Na+] [Sodium salt amorphous form, sodium (S)-2-methoxy-3-{4-[2-(5-methyl-2-phenyl-oxazol-4-yl)-ethoxy]-benzo[b]thiophen-7-yl}-propanoate]",relative humidity above which transformation into hydrated form occurs,[5],Above 50 % RH
same,hygroscopicity,[1],hygroscopic
same,temperature of thermal transformation into Sodium salt Form A,[4],> 115 °C
same,"glass transition temperature, above which recrystallization is likely to occur",[4],approx. 65.5 °C
"CO[C@@H](Cc1ccc(OCCc2nc(-c3ccccc3)oc2C)c2ccsc12)C(=O)O [amorphous form of the Free acid, (S)-2-methoxy-3-{4-[2-(5-methyl-2-phenyl-oxazol-4-yl)-ethoxy]-benzo[b]thiophen-7-yl}-propionic acid]",hygroscopicity,[1]; listed as amorphous form of (S)-2-methoxy-3-{4-[2-(5-methyl-2-phenyl-oxazol-4-yl)-ethoxy]-,hygroscopic
same,"glass transition temperature, above which recrystallization is likely to occur",[4],approx. 44 °C
diisopropylammonium (S)-2-methoxy-3-{4-[2-(5-methyl-2-phenyl-oxazol-4-yl)-ethoxy]-benzo[b]thiophen-7-yl}-propanoate [Diisopropylammonium salt Form A],hygroscopicity,[1],slightly hygroscopic
same,decomposition temperature,[6],approx. 100 °C
